Target: T1, 15-hydroxyprostaglandin dehydrogenase [NAD(+)] (Homo sapiens, UniProt P15428)
T1 sequence (P15428 whole entry): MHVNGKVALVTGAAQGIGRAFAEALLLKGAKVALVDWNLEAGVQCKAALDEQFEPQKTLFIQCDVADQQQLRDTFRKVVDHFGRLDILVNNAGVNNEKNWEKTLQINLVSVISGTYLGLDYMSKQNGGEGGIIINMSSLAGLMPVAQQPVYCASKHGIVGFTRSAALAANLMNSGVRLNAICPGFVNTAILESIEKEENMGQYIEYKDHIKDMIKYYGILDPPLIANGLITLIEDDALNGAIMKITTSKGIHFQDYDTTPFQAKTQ
Experiment: Inhibition test of compounds on 15-PGDH enzyme
Method: 15-PGDH (R&D Systems, Cat. No.: 5660-DH-010) was prepared to twice the final concentration, i.e., 30 nM, using Assay Buffer (50 mM Tris-HCl, pH 7.5, 0.01vol % Tween 20). The obtained mixture was then added to a 384-well white plate (Cisbio Bioassays, Cat. No. 66PL384025) at 8 μL/well. Negative control wells (with Assay Buffer only and without enzyme) were set. The compound was then prepared to 4 times the final concentration using Assay Buffer, i.e., diluted 3-fold to 10 concentrations starting from 4000 nM. The obtained mixture was added to the above white plate at 4 μL/well, mixed well, centrifuged at 1000 rpm for 1 minute, and incubated at 25° C. for 10 minutes. Both positive control wells (with 15-PGDH only) and negative control wells (without 15-PGDH) were set. A mixture of NAD+(Select, Cat. No. S2518) and PGE2 (R&D Systems, Cat. No.: 2296/10) was then prepared using Assay Buffer. NAD+ and PGE2 were prepared to four times their final concentrations, i.e., 2 mM and 0.12 mM, respectively, using Assay Buffer. The obtained mixture was then added to the above white plate at 4 μL/well, mixed well, centrifuged at 1000 rpm for 1 minute, and incubated at 25° C. for 30 minutes for the reaction. The fluorescence was detected at an excitation wavelength of 340 nm and an emission wavelength of 485 nm using instrument TECAN SPARK 20M.

In the case of `CN1CC2=CC(N3CC4CC4C4C=C(C(=O)N5CCC(F)(F)CC5)C=NC43)CN=C2C1=O` (configuration not stated) [US20250034134, Compound I-2], the IC50 is reported as 5.15 nM.

`CN1NC2C=C(N3C[C@H]4C[C@@H]4C4C=C(C(=O)N5CCC(F)(F)CC5)C=NC43)C=CN2C1=O` (some centres not stated) [US20250034134, Compound I-3B] was tested, and the IC50 was 3.58 nM.

Compound `CNC(=O)c1ccc(N2CC3CC3C3C=C(C(=O)N4CCC(F)(F)CC4)C=NC32)cc1F` (configuration not stated) [US20250034134, Compound I-9] has an IC50 of 9.51 nM.

In the case of `N#Cc1ccc(N2CC3CC3C3C=C(C(=O)N4CCC(F)(F)CC4)C=NC32)cc1` (configuration not stated) [US20250034134, Compound I-11], the IC50 is reported as 3.8 nM.

`Cn1ccc2c(c1=O)=CCC(N1C[C@@H]3C[C@@H]3C3C=C(C(=O)N4CCC(F)(F)CC4)C=NC31)C=2` (some centres not stated) [US20250034134, Compound I-12A] was tested, and the IC50 was 1.52 nM.

`Cn1ccc2c(c1=O)=CCC(N1C[C@H]3C[C@@H]3C3C=C(C(=O)N4CCC(F)(F)CC4)C=NC31)C=2` (some centres not stated) [US20250034134, Compound I-12B] showed an IC50 of 7.42 nM.

Work on `Cn1ccc2c(c1=O)=CCC(N1CC3CC3C3C=C(C(=O)N4CCC(F)(F)CC4)C=NC31)C=2` (configuration not stated) [US20250034134, Compound I-12] yielded an IC50 of 2.1 nM.

`CN1C=NC2C=C(N3CC4CC4C4C=C(C(=O)N5CCC(F)(F)CC5)C=CC43)C=NC2C1=O` (configuration not stated) [US20250034134, Compound I-15] gave an IC50 of 5.7 nM.

`O=C(C1=CC2C3CC3CN(C3=CC4NC=NN4C=C3)C2N=C1)N1CCC(F)(F)CC1` (configuration not stated) [US20250034134, Compound I-16] showed an IC50 of 5.4 nM.

For `O=C(C1=CC2C3CC3CN(C3=CC4NN=CN4C=C3)C2N=C1)N1CCC(F)(F)CC1` (configuration not stated) [US20250034134, Compound I-17], the IC50 was 4.5 nM.

`CN1C(=O)C2=NCC(N3CC4CC4C4C=C(C(=O)N5CCC(F)(F)CC5)C=NC43)C=C2C12CC2` (configuration not stated) [US20250034134, Compound I-19] was tested, and the IC50 was 3.72 nM.

For `CN1NC2C=C(N3CC4CC4C4C=C(C(=O)N5CCC(F)(F)C5)C=NC43)C=CN2C1=O` (configuration not stated) [US20250034134, Compound I-21], the IC50 was 4.95 nM.

With `Cn1nc2cc(N3CC4CC4C4C=C(C(=O)N5CCOCC5)C=NC43)ccn2c1=O` (configuration not stated) [US20250034134, Compound I-22] the IC50 was 10.2 nM.

With `CN1NC2C=C(N3CC4CC4C4C=C(C(=O)N5CCCC(C(F)F)C5)C=NC43)C=CN2C1=O` (configuration not stated) [US20250034134, Compound I-23] the IC50 was 4.26 nM.

Work on `CN1NC2C=C(N3CC4CC4C4C=C(C(=O)N5CCCC(F)(F)C5)C=NC43)C=CN2C1=O` (configuration not stated) [US20250034134, Compound I-24] yielded an IC50 of 4.23 nM.

Compound `[2H]C([2H])([2H])N1NC2C=C(N3C[C@H]4C[C@@H]4C4C=C(C(=O)N5CCC(F)(F)CC5)C=NC43)C=CN2C1=O` (some centres not stated) [US20250034134, Compound I-25B] has an IC50 of 3.78 nM.

`[2H]C([2H])([2H])N1NC2C=C(N3CC4CC4C4C=C(C(=O)N5CCC(F)(F)CC5)C=NC43)C=CN2C1=O` (configuration not stated) [US20250034134, Compound I-25] gave an IC50 of 2.59 nM.

In the case of `Cn1nc2cc(N3CC4CC4C4C=C(C(=O)N5CCCC(C(F)(F)F)C5)C=NC43)ccn2c1=O` (configuration not stated) [US20250034134, Compound I-26], the IC50 is reported as 9.9 nM.

In the case of `CN1NC2C=C(N3CC4CC4C4C=C(C(=O)N5CCCC(F)C5)C=NC43)C=CN2C1=O` (configuration not stated) [US20250034134, Compound I-27], the IC50 is reported as 5.7 nM.

In the case of `CN1NC2C=C(N3CC4CC4C4C=C(C(=O)N5CCC6(CC5)CC6)C=NC43)C=CN2C1=O` (configuration not stated) [US20250034134, Compound I-28], the IC50 is reported as 1.71 nM.

Compound `CN1NC2C=C(N3CC4CC4C4C=C(C(=O)N5CC6CC6C5)C=NC43)C=CN2C1=O` (configuration not stated) [US20250034134, Compound I-29] has an IC50 of 5.3 nM.

With `CN1NC2C=C(N3CC4CC4C4C=C(C(=O)N5CCC[C@@H](CF)C5)C=NC43)C=CN2C1=O` (some centres not stated) [US20250034134, Compound I-30] the IC50 was 6 nM.
